Experiments:
[1] = tested on: U138-MG (Glioblastoma) HIF++; assay: MTT cytotoxicity assay, U138-MG; type: cell-based; details: Homo sapiens, 72 hour incubation
Experimental: (§1) The in vitro cytotoxicity of compounds 16 and 22 were evaluated in a panel of cell lines using the standard MTT assay for a 72 hour incubation period (Table 2). Free payloads produced cytotoxicities in the nanomolar to picomolar range.
(§2) Tumor cell lines were maintained in RPMI1640 medium supplemented with 10% heat-inactivated fetal bovine serum, 2 mM L-glutamine and 1 mM sodium pyruvate. 1800 cells per well were seeded in a volume of 180 μl in a 96-well flat bottom polystyrene plate. The cells were allowed to adhere overnight at 37° C. in a CO2 incubator. Ligands were initially formulated in DMSO, and stocks stored at −80° C. They were then further formulated at lox concentration in RPMI1640 medium. 20 ul of diluted samples were added into each treatment well. On each plate, blank wells with no cells, and untreated wells containing cells, were included. […] Cytotoxicity was evaluated using a tetrazolium salt-based assay, the MTT assay. […] The plate was then read on a plate reader at 540 nm, and percentage cell survival calculated as follows: ((mean absorbance treated wells at concentration x−mean absorbance blank wells)÷(mean absorbance untreated wells at concentration x−mean absorbance blank wells))×100. Data were plotted as concentration in nM vs. % cell survival in Microsoft Excel, and IC50 values (concentration where cell survival is reduced by a half) were determined from the graph.

A431 (Skin) HIF+ = assay: MTT cytotoxicity assay, A431; type: cell-based; details: Homo sapiens, A-431, 72 hour incubation
Experimental: as §1, §2

LIM1215 (Colorectal) = assay: MTT cytotoxicity assay, LIM1215; type: cell-based; details: for IC50: LIM1215, MTT assay, 72 hour incubation, HIF1 negative cell-line
Experimental: as §1
Tumor cell lines were maintained in RPMI1640 medium supplemented with 10% heat-inactivated fetal bovine serum, 2 mM L-glutamine and 1 mM sodium pyruvate. 1800 cells per well were seeded in a volume of 180 μl in a 96-well flat bottom polystyrene plate. The cells were allowed to adhere overnight at 37° C. in a CO2 incubator. Ligands were initially formulated in DMSO, and stocks stored at −80° C. They were then further formulated at lox concentration in RPMI1640 medium. 20 ul of diluted samples were added into each treatment well. On each plate, blank wells with no cells, and untreated wells containing cells, were included. Plates were then cultured at 37° C. in a CO2 incubator for 72 hrs. Cytotoxicity was evaluated using a tetrazolium salt-based assay, the MTT assay. After 72 hours, the supernatant was removed from each well and 200 μl of a sterile filtered 500 μg/ml MTT solution in water added to each well. The plates were then incubated at 37° C. in a CO2 incubator for 4 hrs. The supernatant was then removed and the formazan crystals formed solubilized by adding 150 μl of DMSO to each well. The plate was then read on a plate reader at 540 nm, and percentage cell survival calculated as follows: ((mean absorbance treated wells at concentration x−mean absorbance blank wells)÷(mean absorbance untreated wells at concentration x−mean absorbance blank wells))×100. Data were plotted as concentration in nM vs. % cell survival in Microsoft Excel, and IC50 values (concentration where cell survival is reduced by a half) were determined from the graph.

SW620 (Colorectal) = assay: MTT cytotoxicity assay, SW620; type: cell-based; details: Homo sapiens, SW-620, 72 hour incubation
Experimental: as §1, §2

MS1 DNA fragment = assay: DNA footprinting (DNase I); type: binding
Experimental: The DNA sequence selectivity profile of 16 was investigated using a modification of the previously established DNA footprinting assay. Following an overnight incubation of the ligand-DNA complexes, the mixture was mixed with strand separation buffer containing 10 mM EDTA, 10 mM NaOH, 0.1% bromophenol blue, 80% formamide and incubated at 100° C. for 3 min. The mixture was then immediately cooled on ice and run on an 8% denaturing gel. […] This is in contrast to control molecules (FIG. 2), where indiscriminate binding to the DNA sequence can be observed.
Methods for the preparation of the “MS1” DNA fragment (FIG. 2) have been previously described^[19]. Briefly, the sequence which had been cloned into the BamHI site of pUC18 was obtained by cutting with HindIII and EcoRI. Radiolabelled DNA fragments were prepared by filling in the 3′-end of the HindIII site with [α-^32P]dATP using Klenow DNA polymerase (exo-).
The radiolabelled DNA fragment was separated from the remainder of the plasmid DNA on a 6% non-denaturing polyacrylamide gel. […]
Footprinting reactions were performed as previously described^[20] using the “MS1” DNA fragment, which represents a random DNA sequence. […] After gel purification, the radiolabelled DNA was dissolved in 10 mM Tris HCl pH 7.5 containing 0.1 mM EDTA, at a concentration of about 10 c.p.s per μL as determined on a hand held Geiger counter. […]

transcription factors = assay: Transcription factor plate array assay; type: cell-based; details: HeLa cells, 100 nM, 6 hours
Experimental: The transcription factor plate array assay kit was obtained from Signosis Inc (USA). Briefly, 2×10^6 HeLa cells were treated with 100 nM 16 and incubated for 6 hours before extracting the nuclear protein and carrying out the TF plate array assay. The assay was carried out following the manufacturer's protocol. In the case of each transcription factor, the RLU value obtained for the cells treated with 16 was deducted from the respective values obtained for the untreated cells to obtain the differences in TF activation/inhibition.

SW-48 (Colorectal) = assay: MTT cytotoxicity assay, SW-48; type: cell-based; details: Homo sapiens, SW48, 72 hour incubation
Experimental: as §1, §2

**Q.** For COc1cc2c(cc1OCCCC(=O)Nc1cc(C(=O)Nc3ccc(-c4cc(C)c(C(=O)Nc5ccccc5)s4)nc3)n(C)c1)N=C[C@@H]1CCCCN1C2=O [Compound 16, (S)-4-(4-((2-Methoxy-12-oxo-6a,7,8,9,10,12-hexahydrobenzo[e]pyrido[1,2-a] [1,4]diazepin-3-yl)oxy)butanamido)-1-methyl-N-(6-(4-methyl-5-(phenyl-carbamoyl)thiophen-2-yl)pyridin-3-yl)-1H-pyrrole-2-carboxamide], which IC50 [1] is on record?
**A.** Its IC50 is 0.261 nM.

**Q.** What about the IC50 (A431 (Skin) HIF+) of the same compound?
**A.** Its IC50 is 0.029 nM.

**Q.** What about the IC50 (LIM1215 (Colorectal)) of the same compound?
**A.** Its IC50 is 1.6 nM.

**Q.** And the IC50 (SW620 (Colorectal))?
**A.** Its IC50 is 0.302 nM.

**Q.** And the “preferred binding site (sequence motif)” value (MS1 DNA fragment; R is preferably a G or C, X is any base)?
**A.** The value was “XRXXRRXX”.

**Q.** What about the “DNA footprint / binding pattern on the MS1 DNA sequence” value (MS1 DNA fragment; overnight incubation of ligand-DNA complexes) of the same compound?
**A.** Its value is “only two preferred sites were observed”.

**Q.** And the “major transcription factors down-regulated” value (transcription factors)?
**A.** Its value is “HIF1 (hypoxia-inducible factor 1), NF-1 (Neurofibromatosis type 1), FOXG1 and NF-κB”.

**Q.** And the IC50 (SW-48 (Colorectal))?
**A.** Its IC50 is 0.142 nM.

**Q.** For COc1cc2c(cc1OCCCC(=O)Nc1cc(C(=O)Nc3ccc(-c4cc(C(=O)Nc5ccccc5)n(C)c4)cc3)n(C)c1)N=C[C@@H]1CCCCN1C2=O [Compound 22, (S)-4-(4-((2-Methoxy-12-oxo-6a,7,8,9,10,12-hexahydrobenzo[e]pyrido[1,2-a][1,4]diazepin-3-yl)oxy)butanamido)-1-methyl-N-(4-(1-methyl-5-(phenylcarbamoyl)-1H-pyrrol-3-yl)phenyl)-1H-pyrrole-2-carboxamide], which IC50 [1] is on record?
**A.** Its IC50 is 1.62 nM.

**Q.** And the IC50 (A431 (Skin) HIF+)?
**A.** The IC50 was 0.055 nM.

**Q.** What about the “potency relative to 16” value (LIM1215 (Colorectal); HIF1 negative cell-line LIM1215) of the same compound?
**A.** Its value is “two-fold more potent than 16”.

**Q.** What about the IC50 (LIM1215 (Colorectal)) of the same compound?
**A.** The IC50 was 0.899 nM.

**Q.** What about the IC50 (SW620 (Colorectal)) of the same compound?
**A.** The IC50 was 0.291 nM.

**Q.** What about the IC50 (SW-48 (Colorectal)) of the same compound?
**A.** Its IC50 is 0.093 nM.

— patent publication US20230302142A1, “Cytotoxic Agents” (priority 2020, published 2023)
